Assay results as given in US20180074053A1 (priority 2016, published 2018).
“Also recorded” adds a separate entry of the source. Like-named read-outs stand apart in the source and are kept apart here.

Legend:
C57BL/6J mice = assay: Oral glucose tolerance test (OGTT); format: in vivo, mouse; conditions: for significance of blood glucose lowering in OGTT / blood glucose in response to a glucose load (OGTT): Example 5, FIG. 9; for blood glucose in response to a glucose load (OGTT): 1, 0.5 and 0.1 mg/g body weight; for overall effect on blood glucose in OGTT: Example 8, FIG. 13, GABA 200 mg/kg, DT-109 1 mg/g, p<0.01 2-way ANOVA; for overall effect on blood glucose in OGTT vs vehicle: Example 9, FIG. 14, DT-110 1 mg/g, alamandine 10 mg/g, metformin 0.2 mg/g
Procedure: (§1) C57BL/6J mice were received from Jackson Laboratories at 4 weeks old and aged to 7 weeks and then grouped by body weight into 4 groups of 10. The mice were fasted overnight (12 hours) prior to the assay. Body weights and blood glucose (FreeStyle Lite glucometer) levels were determined. […] At 30, 60, 90, and 120 minutes glucose levels were measured using whole blood collected from the tip of the tail via needle puncture. Upon the final 120 min measurement, food was returned to the mice.
Oral glucose tolerance tests (OGTTs) were performed as described in Example 1.
as §1, with “puncture.” for “puncture. Upon the final 120 min measurement, food was returned to the mice.”
as §1, with “puncture.” for “puncture. Upon the final 120 min measurement, food was returned to the mice.”

GPCR109a = GPCR109a (Homo sapiens, UniProt Q8TDS4); conditions: doses of 5 mM and below; FIG. 6A
GPCR109a, sequence (Q8TDS4 whole entry): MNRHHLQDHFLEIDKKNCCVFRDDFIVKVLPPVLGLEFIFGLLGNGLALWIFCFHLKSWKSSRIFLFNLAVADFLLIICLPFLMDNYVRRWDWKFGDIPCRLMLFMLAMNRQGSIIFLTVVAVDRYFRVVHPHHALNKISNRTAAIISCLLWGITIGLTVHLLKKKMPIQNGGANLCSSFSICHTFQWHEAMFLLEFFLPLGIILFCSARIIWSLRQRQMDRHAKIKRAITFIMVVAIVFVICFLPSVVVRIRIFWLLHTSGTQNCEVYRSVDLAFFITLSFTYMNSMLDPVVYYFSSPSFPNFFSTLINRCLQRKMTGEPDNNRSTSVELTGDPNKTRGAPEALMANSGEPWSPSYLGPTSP
Procedure: (§2) Cells were grown in DMEM medium containing 10% FBS, 1× non-essential amino acids (Gibco #111450-040), 20 mM HEPES and 250 μg/mL Geneticin® (Gibco #10131-035). Cells were harvested with 0.25% Trypsin/EDTA (Gibco #25200-056), pelleted at 1,200×g for 6 minutes and resuspended in DMEM media described above minus Geneticin®. The cells were seeded at 4×10^4 cells/well/100 μL of a clear bottom/black 96-well plate and grown overnight. The calcium mobilization assays was performed using Screen Quest Fluo-8 Medium Removal Calcium Assay Kit (AAT Bioquest #36308) according to the manufacturer's protocol. Briefly, cells were washed with 100 μL volume of Hank's balanced salt solution, 20 mM HEPES, pH 7.4 and loaded with a buffer containing HBSS, 20 mM HEPES, 1× Pluronic F127 and the Fluo-8 NW dye. The cells were incubated for 30 minutes at 37° C. followed by a 30 minute room temperature incubation. Drug stocks were prepared at 100× concentration and diluted 1:33 in HBSS, 20 mM HEPES, pH 7.4 in a 96-well plate (Corning #3641). Calcium mobilization was measured using the FlexStation 3 (Molecular Devices) at excitation wavelength of 490 nm and emission wavelength of 525 nm. Fluorescence was measured for 180 seconds at 5 second intervals with the addition of compound at a 1:3 dilution after 15 seconds. Peak fluorescence values were calculated using SoftMax Pro 5 (Molecular Devices). The fluorescence values obtained from control wells without cells are subtracted from wells containing treated cells to correct for background. The ratio of fluorescence values of treated cells to vehicle control wells was used to calculate fold activity of the compounds.
(§3) The specificity of the agonist activity was determined by testing in the cell lines that over-express GPCR40 and GPCR 109a.

GPCR40 = GPCR40 (Homo sapiens, UniProt O14842); conditions: doses of 5 mM and below; FIG. 7A
GPCR40, sequence (O14842 whole entry): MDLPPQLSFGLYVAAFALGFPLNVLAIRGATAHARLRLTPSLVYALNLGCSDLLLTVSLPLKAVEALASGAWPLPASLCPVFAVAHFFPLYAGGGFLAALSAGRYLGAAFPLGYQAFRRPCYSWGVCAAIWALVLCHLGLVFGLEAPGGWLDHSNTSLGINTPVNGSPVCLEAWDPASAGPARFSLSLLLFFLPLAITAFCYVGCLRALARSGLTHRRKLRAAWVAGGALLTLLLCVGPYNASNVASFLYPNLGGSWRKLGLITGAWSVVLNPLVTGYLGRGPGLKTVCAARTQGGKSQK
Procedure: as §2, §3

MrgprD^−/− (KO) mice = conditions: P<0.05 KO vs. WT
Procedure: (§4) The mice were fasted overnight and their fasting glucose levels were measured. […] Blood glucose levels were measured at 30, 60, 90 and 120 minutes after glucose loading.
as §4

STC-1 cells [1] = conditions: has been shown; cited from earlier work
[2] = system: C57/BL/6J mice and diabetic mouse models; conditions: previous studies (Zhang 2013; U.S. Pat. No. 8,664,177); cited from earlier work
diabetic mice = conditions: has been shown; cited from earlier work
MRGD [3] = target: T1, MRGD (Homo sapiens, UniProt Q8TDS7); assay: Calcium mobilization in MRGD over-expressing cells; format: cell-based; set-up: host or cells: ChemiScreen over-expressing cell line, given as 'HEK 293T cells (Chem-1, EMD Millipore)'; conditions: for activation of calcium mobilization: Example 6, FIG. 10, entire dose range
T1 sequence (Q8TDS7 whole entry): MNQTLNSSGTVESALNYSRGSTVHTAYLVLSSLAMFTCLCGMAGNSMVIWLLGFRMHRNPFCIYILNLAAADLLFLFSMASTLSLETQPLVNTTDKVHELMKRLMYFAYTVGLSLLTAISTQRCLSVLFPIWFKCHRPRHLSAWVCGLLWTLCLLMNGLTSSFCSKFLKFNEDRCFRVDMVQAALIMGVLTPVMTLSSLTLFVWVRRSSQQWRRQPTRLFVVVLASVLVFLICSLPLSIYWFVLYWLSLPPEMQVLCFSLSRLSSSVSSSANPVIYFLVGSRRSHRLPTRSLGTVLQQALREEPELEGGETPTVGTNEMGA
Procedure: as §2
MRGD cells (EMD Millipore, MA) were treated with either β-alanine, or alamandine at various concentrations (FIG. 10) and calcium mobilization was monitored using a FlexStation 3 Microplate Reader (Molecular Devices) as described in Example 4.

STC-1 cells [4] = assay: GLP-1 secretion from STC-1 cells (ELISA); format: cell-based, mouse; conditions: STC-1 cells, co-treatment with DT-110, 2 hours; FIG. 3
Procedure: The pathways and sites of action of H89 and U73122 are graphically represented in FIG. 2.
Supernatants were collected for GLP-1 measurement. and the GLP-1 concentration was measured using a total GLP-1 (7-36 and 9-36) ELISA kit according to manufacturer's instruction (Alpco. Salem, N.H.).

eNOS = eNOS mRNA expression in HUVEC; format: cell-based, human; conditions: FIG. 15
Description: It has been shown that activation of MRGD by alamandine plays an important role in vasodilation by increasing nitric oxide (NO) production. NO produced by the endothelium is an important protective molecule in the vasculature and is mainly generated by the enzyme endothelial NO synthase (eNOS) in blood vessels. Enhancing the expression of eNOS has been considered as possible therapeutic strategy for reducing cardiovascular risk.

MRGD [5] = target: T1, MRGD; assay: Calcium mobilization in MRGD cells, antagonist mode; format: cell-based; set-up: host or cells: ChemiScreen over-expressing cell line, given as 'HEK 293T cells (Chem-1, EMD Millipore)'; conditions: 15 min pre-incubation 30 nM-3 μM, FIG. 11
Procedure: A similar assay was run in the antagonist mode where cells were first incubated with 0, 30 nM, 300 nM or 3 μM alamandine as shown in FIG. 11 (x-axis) for 15 minutes. Then one of 3 different agonists was added to the wells, at their EC90 and the calcium mobilization recorded.

[6] = target: MAS-related G-protein-coupled receptor member D (MRGD) (human, UniProt Q8TDS7 1-321); assay: cell-based or functional assay
MAS-related G-protein-coupled receptor member D (MRGD), sequence (Q8TDS7 whole entry): as above

## CC(C)C[C@H](NC(=O)CNC(=O)CN)C(=O)O
C57BL/6J mice; Example 1, FIG. 1A, 2 mg/g glucose plus 1.0, 0.5 or 0.1 mg/g oral gavage, 30-120 min
  blood glucose levels during OGTT: lowers blood glucose levels in C57BL/6J mice during OGTT in a dose dependent manner
C57BL/6J mice; Example 1, FIG. 1B, 1.0, 0.5 or 0.1 mg/g oral, p<0.01 vs control
  blood glucose area under curve (AUC) in OGTT: significantly lowers blood glucose in mice in a dose dependent manner
C57BL/6J mice; 0.1 mg/g
  significance of blood glucose lowering in OGTT: significant
C57BL/6J mice; 0.5 mg/g
  significance of blood glucose lowering in OGTT: significant
C57BL/6J mice; 1 mg/g
  significance of blood glucose lowering in OGTT: significant
C57BL/6J mice
  blood glucose in response to a glucose load (OGTT): lower blood glucose in response to a glucose load, in a dose-dependent manner
  overall effect on blood glucose in OGTT: overall significant effect in lowering blood glucose
GPCR109a
  agonist activity (Ca2+ flux): inactive
GPCR40
  agonist activity (Ca2+ flux): inactive
MrgprD^−/− (KO) mice; 0.25 mg/g with 2 mg/g glucose oral
  reduction of blood glucose levels in KO mice compared with WT mice (OGTT): significantly impaired
MrgprD^−/− (KO) mice; 0.5 mg/g with 2 mg/g glucose oral
  reduction of blood glucose levels in KO mice compared with WT mice (OGTT): significantly impaired
STC-1 cells [1]
  GLP-1 secretion: stimulate GLP-1 secretion
[2]
  blood glucose: lower blood glucose
Diabetic mice
  GLP-1 level: elevate GLP-1 level
MRGD [3]; at 5 mM, highest dose used, Example 4
  calcium mobilization activity: active

## NCCCC(=O)O [GABA, gamma amino butyric acid, reference compound]
C57BL/6J mice
  overall effect on blood glucose in OGTT: overall significant effect in lowering blood glucose
MRGD [3]; Example 7, FIG. 12, read-out: half maximal effective concentration (EC50)
  EC50: ~68 µM

## O=S(=O)(NCCNC/C=C/c1ccc(Br)cc1)c1cccc2cnccc12 [H89]
STC-1 cells [4]
  inhibition of DT-110 stimulated GLP-1 secretion: inhibit DT-110 stimulated GLP-1 secretion; also recorded: partially inhibited

## COc1ccc2c(c1)CC[C@@H]1[C@@H]2CC[C@]2(C)[C@@H](NCCCCCCN3C(=O)C=CC3=O)CC[C@@H]12 [U73122]
STC-1 cells [4]
  inhibition of DT-110 stimulated GLP-1 secretion: inhibit DT-110 stimulated GLP-1 secretion; also recorded: partially inhibited

## CN(C)C(=N)N=C(N)N [metformin, reference compound]
C57BL/6J mice
  overall effect on blood glucose in OGTT vs vehicle: significant effect on blood glucose
C57BL/6J mice; Example 9, P<0.001
  effect on blood glucose compared with alamandine: significantly better than alamandine

## NCCC(=O)O [β-alanine, reference compound]
C57BL/6J mice; 0.1 mg/g
  significance of blood glucose lowering in OGTT: did not
C57BL/6J mice; 0.5 mg/g
  significance of blood glucose lowering in OGTT: showed significance
C57BL/6J mice; 1 mg/g
  significance of blood glucose lowering in OGTT: showed significance
C57BL/6J mice
  blood glucose in response to a glucose load (OGTT): lower blood glucose in response to a glucose load, in a dose-dependent manner
MRGD [3]; Example 4, FIG. 8, DT-110 lot 2, read-out: EC50
  EC50: 7.5 µM
MRGD [3]
  activation of calcium mobilization: stimulated calcium mobilization
MRGD [3]; FIG. 8
  potency relative to DT-110 or DT-109: more than 10 fold

## alamandine
C57BL/6J mice
  overall effect on blood glucose in OGTT vs vehicle: weak but overall significant effect
eNOS; 30 minutes, vs control
  eNOS mRNA levels: the same
eNOS; 60 minutes
  eNOS expression: increased eNOS expression
eNOS; 120 minutes
  eNOS expression: returned to control levels
MRGD [3]
  activation of calcium mobilization: no activation of calcium mobilization; also recorded: did not
MRGD [5]; DT-109 at EC90
  effect on DT-109 signaling: did not have any significant effect
MRGD [5]; DT-110 at EC90
  effect on DT-110 signaling: did not have any significant effect
MRGD [5]; β-alanine at EC90, P<0.05
  effect on β-alanine signaling: significantly decreased β-alanine signaling

B1: DT-109, three amino acid peptide glycine-glycine-leucine (GGL) (peptide)
peptide: GGL
[6]
  EC50, calcium mobilization in MRGD over-expressing cells (FIG. 5): 600 µM
  EC50, calcium mobilization in the MRGD cell line (FIG. 8): 178 µM
